According to publication PMC5615911 (Toxicology Reports, 2016):
Where two headings read alike, the source gives them in different places.

What was measured:
[1] = test system: femoral bone marrow polychromatic erythrocytes; settings: ip, cited from earlier work
[2] = male, cited from earlier work
[3] = test system: S. typhimurium strains TA98, TA100, TA1535, TA1537; settings: up to 5000 μg/plate; cited from earlier work
TA1535 = settings: plate incorporation, absence of metabolic activation; cited from earlier work
TA100 = settings: pre-incubation, presence of metabolic activation; cited from earlier work
[4] = diet, 92 or 93 days; cited from earlier work
CHO-WBL cells = settings: ±metabolic activation, up to 5000 μg/mL; cited from earlier work
[5] = test system: GPCRs, ion channels, nuclear receptors, transporters; settings: 10 μM; ref Senomyx, unpublished results; cited from earlier work
CYP3A4 [6] = target: T1, CYP3A4 (Homo sapiens, UniProt P08684); settings: ref Senomyx, unpublished results; cited from earlier work
CYP3A4 [7] = target: T1, CYP3A4; settings: ref Senomyx, unpublished results; cited from earlier work; remark: listed apart in the source
[8] = 28 days oral gavage, highest dose evaluated; ref Senomyx, unpublished results; cited from earlier work
[9] = ref Chi, unpublished results, cited from earlier work
[10] = In vitro metabolism, human liver microsomes; assay type: in vitro ADME; settings: 60 min, with NADPH, positive control
[11] = In vitro metabolism, rat liver microsomes; assay type: in vitro ADME, Sprague-Dawley rat; settings: 60 min, with NADPH, positive control
[12] = female, oral gavage 10 mg/kg bw
[13] = female, oral gavage 30 mg/kg bw
[14] = female, oral gavage 100 mg/kg bw

T1 sequence (P08684 whole entry): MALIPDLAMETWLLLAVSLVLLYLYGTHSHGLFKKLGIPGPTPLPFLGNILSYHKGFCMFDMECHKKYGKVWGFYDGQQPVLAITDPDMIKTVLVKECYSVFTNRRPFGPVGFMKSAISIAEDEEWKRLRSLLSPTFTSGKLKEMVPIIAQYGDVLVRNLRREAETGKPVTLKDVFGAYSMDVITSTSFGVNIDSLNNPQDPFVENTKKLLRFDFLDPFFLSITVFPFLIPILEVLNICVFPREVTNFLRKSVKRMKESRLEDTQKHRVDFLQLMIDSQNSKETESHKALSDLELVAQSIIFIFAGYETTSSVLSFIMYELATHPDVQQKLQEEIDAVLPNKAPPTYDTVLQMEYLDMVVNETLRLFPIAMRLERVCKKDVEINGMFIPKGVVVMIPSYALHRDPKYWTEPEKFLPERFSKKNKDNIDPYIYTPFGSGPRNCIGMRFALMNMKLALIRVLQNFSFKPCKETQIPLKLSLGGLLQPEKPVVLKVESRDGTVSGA

In the case of `COc1ccc(CNC(=O)C(=O)NCCc2ccccn2)c(OC)c1` [S336, N^1-(2,4-dimethoxybenzyl)-N^2-(2-(pyridin-2-yl)ethyl)oxalamide], the “Micronucleated polychromatic erythrocytes vs negative control” value ([1]; up to 800 mg/kg bw, 24, 36, 48 h) is given as “no statistically significant differences”, the Maximum tolerated dose [1] is given as 800 mg/kg bw and the AUC0-last ([2]; iv 0.1 mg/kg bw) is given as 65.0 ± 1.3 ng·h/mL. For the same compound, the Cmax ([2]; iv 0.1 mg/kg bw) was 207 ± 25.8 ng/mL, the Tmax ([2]; iv 0.1 mg/kg bw) was 1.8 min and the t1/2 ([2]; iv 0.1 mg/kg bw) was 25.2 min. The “% F” value ([2]; oral gavage 10 mg/kg bw) was 89.4%, the AUC0-last ([2]; oral gavage 10 mg/kg bw) was 5809 ± 444 ng·h/mL and the Cmax ([2]; oral gavage 10 mg/kg bw) was 7027 ± 925 ng/mL. The Tmax ([2]; oral gavage 10 mg/kg bw) was 15 min, the t1/2 ([2]; oral gavage 10 mg/kg bw) was 41.4 min and the “% F” value ([2]; oral gavage 30 mg/kg bw) was 114.2%. The AUC0-last ([2]; oral gavage 30 mg/kg bw) was 22260 ± 727 ng·h/mL, the Cmax ([2]; oral gavage 30 mg/kg bw) was 23430 ± 1436 ng/mL and the Tmax ([2]; oral gavage 30 mg/kg bw) was 11.4 min. For the same compound, the t1/2 ([2]; oral gavage 30 mg/kg bw) was 42.6 min, the “% F” value ([2]; oral gavage 100 mg/kg bw) was 134.6% and the AUC0-last ([2]; oral gavage 100 mg/kg bw) was 87490 ± 13350 ng·h/mL. The Cmax ([2]; oral gavage 100 mg/kg bw) was 36270 ± 6004 ng/mL, the Tmax ([2]; oral gavage 100 mg/kg bw) was 15 min and the t1/2 ([2]; oral gavage 100 mg/kg bw) was 58.8 min. For the same compound, the “Fold increase in AUClast for 10-fold increase in oral dose” value (“Fold increase in AUClast” for short) [2] was 15.1 fold, the “Mutagenicity, conclusion” value [3] was “non-mutagenic” and the Reverse mutation result (TA1535) was “weakly positive”. For the same compound, the Reverse mutation result (TA100) was “weakly positive”, the NOEL [4] was “at least 100 mg/kg bw/day” and the Clastogenicity (CHO-WBL cells) was “non-clastogenic”.

In the case of `COc1cccc(CNC(=O)C(=O)NCCc2ccccn2)c1OC` [S5456, N^1-(2,3-dimethoxybenzyl)-N^2-(2-(pyridin-2-yl)ethyl)oxalamide], the Significant off-target activities [5] is listed as “No other significant off-target activities”, the “% inhibition at 10 μM” value (CYP3A4 [6]) is listed as 51% and the “% inhibition at 10 μM, any CYP isozyme of the panel” value (CYP3A4 [7]) is listed as < 50%. For the same compound, the NOEL [8] was 140 mg/kg bw/day, the AUC0-last ([9]; female, iv 1.0 mg/kg bw) was 817 ± 186 ng·h/mL and the Cmax ([9]; female, iv 1.0 mg/kg bw) was 2398 ± 391 ng/mL. The Tmax ([9]; female, iv 1.0 mg/kg bw) was 1.8 min, the t1/2 ([9]; female, iv 1.0 mg/kg bw) was 19.2 min and the “% F” value [9, 12] was 51.4%. The AUC0-last [9, 12] was 4201 ± 1013 ng·h/mL, the Cmax [9, 12] was 3258 ± 1087 ng/mL and the Tmax [9, 12] was 15 min. For the same compound, the t1/2 [9, 12] was 72 min, the “% F” value [9, 13] was 108.6% and the AUC0-last [9, 13] was 26610 ± 7306 ng·h/mL. For the same compound, the Cmax [9, 13] was 10980 ± 1500 ng/mL, the Tmax [9, 13] was 19.8 min and the t1/2 [9, 13] was 95.4 min. For the same compound, the “% F” value [9, 14] was 250.2%, the AUC0-last [9, 14] was 204400 ± 44540 ng·h/mL and the Cmax [9, 14] was 34670 ± 4196 ng/mL. For the same compound, the Tmax [9, 14] was 55.2 min, the t1/2 [9, 14] was 175 min and the “Fold increase in AUClast” value ([9]; female) was 48.7 fold. For the same compound, the AUC0-last ([9]; male, iv 1.0 mg/kg bw) was 757 ± 112 ng·h/mL, the Cmax ([9]; male, iv 1.0 mg/kg bw) was 2633 ± 363 ng/mL and the Tmax ([9]; male, iv 1.0 mg/kg bw) was 1.8 min. For the same compound, the t1/2 ([9]; male, iv 1.0 mg/kg bw) was 19.2 min, the “% F” value ([9]; male, oral gavage 10 mg/kg bw) was 39.6% and the AUC0-last ([9]; male, oral gavage 10 mg/kg bw) was 3001 ± 498 ng·h/mL. The Cmax ([9]; male, oral gavage 10 mg/kg bw) was 3120 ± 787 ng/mL, the Tmax ([9]; male, oral gavage 10 mg/kg bw) was 15 min and the t1/2 ([9]; male, oral gavage 10 mg/kg bw) was 57 min. The “% F” value ([9]; male, oral gavage 30 mg/kg bw) was 42.0%, the AUC0-last ([9]; male, oral gavage 30 mg/kg bw) was 9535 ± 4190 ng·h/mL and the Cmax ([9]; male, oral gavage 30 mg/kg bw) was 7643 ± 2404 ng/mL. The Tmax ([9]; male, oral gavage 30 mg/kg bw) was 18.6 min, the t1/2 ([9]; male, oral gavage 30 mg/kg bw) was 65.4 min and the “% F” value ([9]; male, oral gavage 100 mg/kg bw) was 73.9%. The AUC0-last ([9]; male, oral gavage 100 mg/kg bw) was 55950 ± 19820 ng·h/mL, the Cmax ([9]; male, oral gavage 100 mg/kg bw) was 33070 ± 14550 ng/mL and the Tmax ([9]; male, oral gavage 100 mg/kg bw) was 15 min. The t1/2 ([9]; male, oral gavage 100 mg/kg bw) was 81 min and the “Fold increase in AUClast” value ([9]; male) was 18.6 fold.

In the case of `C[C@]12CC[C@H]3[C@@H](CCC4=CC(=O)CC[C@@]43C)[C@@H]1CC[C@@H]2O` [testosterone, reference compound], the Turnover [10] was “greater than 85%” and the Turnover [11] was “greater than 85%”.
